According to ChEMBL document CHEMBL3507680, “University of Dundee, Gates Library screen for HepG2 cell viability”:

Assay: Human HepG2 cell viability assay in 384 well format
Assay type: toxicity, cell-based
Design: dose 125 nL, time 70.5 hour; cytotoxicity at 70.5 h: concentration not given beside the values
Details: HepG2 cells, read-out: Inhibition

SMILES	cytotoxicity at 70.5 h [%]
CNS(=O)(=O)CC(=O)N(Cc1c(F)cccc1Cl)C1CC1	-7.68
COCc1noc(-c2nn(-c3ccccc3F)c3c2CCC3)n1	-6.39
CS(=O)(=O)CCCSCc1ccc(Br)c(F)c1	-1.93
CNC(=O)c1sc(C2CCCC2)nc1C	-5.12
O=C(NCc1ccco1)Nc1ccc2nc(N3CCOCC3)oc2c1	-2.89
CC(C)(C)Cc1noc2ncc(C(=O)N3CCC3)cc12	-6.81
Cc1cc(NC(=O)N(Cc2ccc(C#N)cc2)C(C)C)no1	-13.2
CCSc1ccc(C(C)NC(=O)CNS(C)(=O)=O)cc1 (stereo not drawn)	-7.13
O=C1CCCN1CC1CCCCN1C(=O)Nc1cccc(F)c1 (stereo not drawn)	-14.6
CC(=O)c1cccc(NC(=O)N2CCCCC2CN2CCCC2=O)c1 (stereo not drawn)	-7.82
[O-][S+](CCN1CCc2[nH]nc(C(F)(F)F)c2C1)c1ccccc1 (stereo not drawn)	-6.21
CN(C)c1cc2c(nn1)CCN(C(=O)c1cc3ccccc3o1)C2	-11.3
CCNc1cc2c(nn1)CCN(C(=O)c1cc3ccccc3[nH]c1=O)C2	-12.3
CCC(=O)Nc1cc(Br)cnc1OCC(F)(F)F	-8.98
CCOc1cc(F)ccc1NC(=O)NCC(c1cnn(C)c1)N(C)C (stereo not drawn)	-0.683
CCOCc1ccccc1NC(=O)NCC(c1cnn(C)c1)N(C)C (stereo not drawn)	-5.82
Cn1c(C(=O)NS(C)(=O)=O)ccc1-c1ccccc1	-6.29
Cc1ccc(C(NC(=O)Cc2nc3ncccn3n2)C2CC2)cc1 (stereo not drawn)	-11.9
CNC(=O)c1ccc(-c2ccccc2)n1C	-9.17
Cc1nc(NC(=O)OC(C)(C)C)sc1C(N)=O	-2.34
CCN(CC)C(C(=O)Nc1ccc2c(c1)CCC(=O)N2)c1ccccc1 (stereo not drawn)	-11.2
c1ccc(CSc2nnc(C3CC3)s2)nc1	-7.57
CCCN(CCC)S(=O)(=O)N(C)Cc1ccncc1	-12.4

SMILES	cytotoxicity at 70.5 h [%]
COCCN(CCOC)S(=O)(=O)N(C)Cc1ccncc1	19.1
CC/C=C(/C)C(=O)NCc1ccnc(OC)c1	-8.93
CC(C)N(C)CCNC(=O)N(C)CC1CCOCC1	-11.2
Cc1cc2n(n1)CC(CNCc1cnn(C)c1)CN2 (stereo not drawn)	-15
COc1c(CNCCC(=O)Nc2cccc(C)n2)c(C(C)C)nn1C	14.3
CN1CCN(C(=O)CCCc2ccccn2)c2ccc(F)cc21	14.3
Cc1ccc(N(C)CC(O)COCc2ccccc2)c(C)c1 (stereo not drawn)	12.5
COc1c(NC(=O)N(C)CCOc2ccccc2)c(C)nn1C	15.1
COCCOCC(=O)NCCCOC1CCCc2ccccc21 (stereo not drawn)	27.2
Cc1noc(CNc2ccc(OC(F)F)cc2OC(F)F)n1	-2.77
CC(=O)NCCNC(=O)Nc1ccc(C)cc1OCc1ccccc1	-1.2
Cc1cc(C)cc(C(=O)NCCCC2(C3OCCO3)CCOCC2)c1	1.06
O=C(CCc1nccs1)N1CCC(C(=O)O)(c2ccccc2)CC1	-0.696
CCN(CC)S(=O)(=O)CCNc1ncnc2cc(F)c(F)cc12	-1.89
Cc1nc(CNC(=O)Nc2ccc3c(c2)CCCC(=O)N3)sc1C	-0.115
N#Cc1ccc(NCCCN2C(=O)COc3ccccc32)nc1	-1.32
Cc1nc(CNC(=O)Nc2ccc3c(c2)CCCN3C)sc1C	-0.336
COc1cccc(C2(NC(=O)CCNC(C)=O)CC2)c1	5.65
COc1c(NC(=O)N(C)CCOc2ccc(F)cc2)c(C)nn1C	2.48
Cc1noc(C)c1Cn1cc(I)cc(C)c1=O	4.77
CN1C(=O)CCN(C(=O)C2CC=CC2)c2ccccc21	1.54
COc1cccc(-c2n[nH]cc2CNCC2CCS(=O)(=O)C2)c1 (stereo not drawn)	0.998
O=C(CCCc1ccccn1)N1CCOc2ccc(F)cc21	1.36

SMILES	cytotoxicity at 70.5 h [%]
FC(F)(F)c1nnc2n1CCN(c1nc(C3CC3)ns1)C2	-1.08
COCCC(=O)NCCCOC1CCCc2ccccc21 (stereo not drawn)	1.55
Cn1cc(C2CCCN2C(=O)CCn2ccc3ccccc32)cn1 (stereo not drawn)	3.44
COc1cccc(COCC(O)CN(C)c2ccc(C)cc2C)c1 (stereo not drawn)	-0.324
Cn1cc(C2CCCN2C(=O)Cn2ccc3ccccc32)cn1 (stereo not drawn)	-0.47
Cc1ccc(N(C)CC(O)COCc2ccccc2F)c(C)c1 (stereo not drawn)	-0.728
COc1c(CNCCC(=O)Nc2cccc(C)n2)c(C)nn1C	-1.12
CC(C)N(Cc1cccnc1)C(=O)CCSc1ccc(C#N)cc1	5.31
CCCc1cc(NC(=O)c2cc(N3CCNC3=O)c(F)cc2F)n[nH]1	1.56
Cc1cc(CS(=O)(=O)CC(=O)N2c3ccccc3CC2C)no1 (stereo not drawn)	-0.335
Cc1noc(C)c1CS(=O)(=O)CC(=O)N1c2ccccc2CC1C (stereo not drawn)	-12
CN(C)C(CNCc1nc(-c2ccsc2)no1)c1cccs1 (stereo not drawn)	-8.94
Cc1cc(C)c(CNc2ncnc3c2cnn3C)c(=O)[nH]1	-11.1
CC(C)N(Cc1cccnc1)C(=O)CNc1ccc(C#N)cc1	-12.5
N#Cc1ccc(OC2CCN(CC(=O)NCC3CCCO3)CC2)cc1 (stereo not drawn)	-5
O=C(CCCNC(=O)Nc1ccc(F)cc1)Nc1cn[nH]c1	-7.73
CCCc1cc(NC(=O)c2ccc(Cl)c(N3CCNC3=O)c2)n[nH]1	11.9
CS(=O)(=O)c1nccn1Cc1ccc(F)cc1Cl	-6.78
CC(Nc1ccc(Oc2cccc(C#N)c2)cc1)C(=O)NC1CC1 (stereo not drawn)	-3.83
CNS(=O)(=O)c1cc(C(=O)N(C)Cc2sccc2C)c(C)o1	-5.52
CC1CN(Cc2ccccc2)CCCN1CCCS(C)(=O)=O (stereo not drawn)	-4.81
COc1ccc(S(=O)(=O)Cc2noc(CC(C)C)n2)cc1	5.74
Cc1ccc(N2CCc3ncnc(C)c3CC2)nn1	18.8

SMILES	cytotoxicity at 70.5 h [%]
O=C(NC[C@@H]1C[C@@H]2CN(C(=O)CO)C[C@H]2O1)c1ccsc1	21
O=C(NCC1CC2(CO1)CN(c1ncccn1)C2)C1CCC1 (stereo not drawn)	2.73
COc1cc(N2CC[C@@H]3[C@@H](CC2)OCCN3CC2CC2)ncn1	-4.1
Cn1cc(CN2C[C@H]3CCC[C@@]3(COc3cccnc3)C2)cn1	-2.32
CCN(CC)c1ncnc2c1CCN(c1ccc(C)nn1)CC2	-1.7
Cn1cccc1C(=O)NC[C@H]1C[C@@H]2CN(C(=O)c3ccco3)C[C@@H]2O1	-1.72
CCN(C)c1ncnc2c1CCN(c1ccc(C)nn1)CC2	-2.59
O=C(c1ccco1)N1CCCC2(C1)CN(c1nncs1)CCO2 (stereo not drawn)	-5.17
Cc1cc(CN2CC[C@H]3C[C@@H](c4nc(C5CC5)cs4)O[C@@H]3C2)no1	-2.95
CC1N(c2cnn(C)c2)C(=O)COC12CCN(Cc1ccoc1)CC2 (stereo not drawn)	2.62
O=S(=O)(C1CC1)N1CCCn2nnc(Cn3cccc3)c2C1	-8.69
CCS(=O)(=O)N1CCCn2nnc(Cn3cccc3)c2C1	-5.99
CCN1CC2(CC1=O)CN(C(C)=O)CCN(C(=O)NC(C)C)C2 (stereo not drawn)	-8.93
COCCN1CC2(CCOCC2)c2cc(NC(=O)C3CC=CC3)ccc21	28.4
CCN1C(=O)CC[C@]12CC[C@@H](NC(=O)NCc1cccnc1)CC2	-4.88
CN1C(=O)CC[C@]12CC[C@@H](NC(=O)NCc1cccnc1)CC2	-4
O=C(NCc1cccnc1)N[C@H]1CC[C@@]2(CCC(=O)N2CC2CC2)CC1	8.65
O=C(NCCc1cccnc1)c1nc2c(s1)CCCN2C(=O)C1CC1	-7.13
COCC1c2c(cnn2C)CCN1C(=O)c1cscn1 (stereo not drawn)	-1.37
Cc1nc(CNCC2Cn3nncc3CO2)cs1 (stereo not drawn)	-2.11
Cc1noc(C)c1CNCC1Cn2nncc2CO1 (stereo not drawn)	-2.84
O=C1CC[C@H]2[C@H](CCN2S(=O)(=O)C2CC2)N1CCN1CCCC1	25.5
Cn1cccc1C(=O)N[C@H]1CN(Cc2ccoc2)[C@@H]2CCCO[C@H]12	17.5

SMILES	cytotoxicity at 70.5 h [%]
c1cnc(N2CCO[C@H]3CN(CC4CCOC4)C[C@H]32)cn1 (stereo partly drawn)	-2.13
CCC(=O)N1CCC2(CC1)C(c1cccnc1)CC(=O)N2CCOC (stereo not drawn)	1.53
COc1ccccc1CN1C[C@@H]2CN(C(C)=O)CCO[C@@H]2C1	-1.68
CC(=O)N1CCO[C@@H]2CN(Cc3ccccc3F)C[C@@H]2C1	-5.88
O=C(c1ccccc1F)N1CCC2(CC1)CC(Oc1ccccn1)CO2 (stereo not drawn)	-4.93
O=C(c1ccco1)N1CCCC2(CCN(c3nncs3)C2)C1 (stereo not drawn)	-5.1
COCCN1CCCCC12CC(=O)N(c1ccccc1OC)C2 (stereo not drawn)	-2.67
CC1N(c2cnn(C)c2)C(=O)COC12CCN(Cc1ccco1)CC2 (stereo not drawn)	-3.36
CC1N(c2cnn(C)c2)C(=O)COC12CCN(c1ncccn1)CC2 (stereo not drawn)	-1.11
COc1cccc(CC(=O)N2CC[C@@H](OC)[C@@H]2Cc2cccnc2)c1	-4.93
COc1ccc(CC(=O)N2CC[C@@H](OC)[C@@H]2Cc2cccnc2)cc1	-4.94
O=C1CCCN1Cc1nnn2c1CN(c1cccnc1)CCC2	-8.56
c1cncc(N2CCCn3nnc(COCC4CC4)c3C2)c1	-7.98
CCn1nc(C)cc1C(=O)N1C[C@@H]2C[C@@H](C)O[C@@H]2C1	-7.68
Cc1cccc(CN2CCN3C[C@H](Oc4cncnc4)C[C@H]3C2)n1	-0.54
c1ccc(CN2CCN3C[C@H](Oc4cncnc4)C[C@H]3C2)nc1	-3.2
c1cncc(CN2Cc3nccn3CC(Cn3cccn3)C2)c1 (stereo not drawn)	-6.13
c1cncc(N2CCCn3nnc(CN4CCCCC4)c3C2)c1	-0.156
Cc1ccc(CN2CC[C@@H]3O[C@@H](C(=O)N4CCN(C)CC4)C[C@@H]32)cc1	-1.43
COCC1CC2(CCN(Cc3nccs3)CC2)CN1Cc1ccccn1 (stereo not drawn)	9.76
CN(C)CCN1CCCC12CCN(Cc1nccn1C)CC2	-0.128
